Experimental data from patent publication US20240366581A1 (Hoffmann-La Roche Inc., priority 2022, published 2024).

How the values were obtained:
Type in all cases: biochemical
SIK1 = SIK1 (Homo sapiens (Human), UniProt P57059); assay: SIK1 enzymatic activity assay, RapidFire mass spectrometry (CHK-peptide phosphorylation); details: 5 nM SIK1, CHK-peptide, ATP, 30 min pre-incubation, 45 min reaction, RapidFire MS; read-out: SIK1 RF IC50
Method: (§1) In the presence of SIK2 (resp. SIK1 or SIK3) and ATP the CHK-peptide ([…] with C-terminal arginine amide modification) were phosphorylated at one of the four feasible serine's. Only one phosphorylation is observed under the assay conditions. 60 nl of each compound dilution series (12 point; dilution factor 3, generally 30 μM to 170 pM) in DMSO were transferred by acoustic dispensing to the assay plate and 30 min pre-incubated (ambient temperature) after the addition of 5 μl SIK1 (5 nM) resp. 5 μl SIK2 (0.5 nM) or 7 μl SIK3 (1.5 nM) in assay-buffer (12.5 mM HEPES (pH 7.0), 10 mM magnesium acetate, 0.005% BSA). 10 μM CHK-peptide solution and 5 μl 100 μM ATP for SIK1 & SIK2 resp. 3 μl for SIK3 in assay-buffer were added and incubated ambient for 45 min. 40 μl 0.125% formic acid in water were added to quench the reaction. RapidFire (RF) Mass Spectrometry was utilized for data generation as described below. The multiple charged species (3-5 charges) for the phosphorylated and non-phosphorylated form measured by MRM (Multiple Reaction Monitoring; API5000 or 6500+) or EIC (Extracted Ion Current; QToF) were summed up and the ratio calculated (sum phosphorylated species/sum all species) for data evaluation. Normalization was performed by Genedata software based on the non-inhibition control DMSO and the commercially available SIK inhibitor @ 1 μM YKL-05-099 (CAS number 1936529-65-5). The results of the assay are expressed in half-maximal inhibitory concentrations (IC50s) and are summarized below in Table 1.
(§2) Samples were aspirated by vacuum for max. 600 ms and loaded to C4-cartridge (Agilent; #G9203A) for 3000 ms@1.5 ml/min with 0.1% formic acid in water. Afterwards samples were transferred to the API5000 (API6500+) or QToF mass spectrometer for 4000 ms@1.25 ml/min with 90% acetonitrile; 10% water; 0.007% TFA; 0.093 formic acid. The cartridge was reconditioned for additional 500 ms with 0.1% formic acid in water
(§3) All MS analyses using the following MS-setup in MRM mode: Electrospray positive; Ion Spray Voltage: 4000V; Temperature: 550° C.; Collision Gas: 5; Curtain Gas: 15; Gas1: 40; Gas 2: 42; EP: 10
(§4) All MS analyses using the following MS-setup in Mode MS: Dual AJS Electrospray positive; VCap: 3000V; Drying & Sheath gas: 340° C.@81/min; Nebulizer: 60 psig; Nozzle Voltage: 2000V; Fragmentor: 130V; Skimmer: 35V; Oct1 RF Vpp: 700V; Ref masses on@5spectra/s

SIK2 = SIK2 (Homo sapiens (Human), UniProt Q9H0K1); assay: SIK2 enzymatic activity assay, RapidFire mass spectrometry (CHK-peptide phosphorylation); details: 0.5 nM SIK2, CHK-peptide, ATP, 30 min pre-incubation, 45 min reaction, RapidFire MS; read-out: SIK2 RF IC50
Method: as §1, §2, §3, §4

SIK3 = SIK3 (Homo sapiens (Human), UniProt Q9Y2K2); assay: SIK3 enzymatic activity assay, RapidFire mass spectrometry (CHK-peptide phosphorylation); details: 1.5 nM SIK3, CHK-peptide, ATP, 30 min pre-incubation, 45 min reaction, RapidFire MS; read-out: SIK3 RF IC50
Method: as §1, §2, §3, §4

SIK1, sequence (P57059 whole entry): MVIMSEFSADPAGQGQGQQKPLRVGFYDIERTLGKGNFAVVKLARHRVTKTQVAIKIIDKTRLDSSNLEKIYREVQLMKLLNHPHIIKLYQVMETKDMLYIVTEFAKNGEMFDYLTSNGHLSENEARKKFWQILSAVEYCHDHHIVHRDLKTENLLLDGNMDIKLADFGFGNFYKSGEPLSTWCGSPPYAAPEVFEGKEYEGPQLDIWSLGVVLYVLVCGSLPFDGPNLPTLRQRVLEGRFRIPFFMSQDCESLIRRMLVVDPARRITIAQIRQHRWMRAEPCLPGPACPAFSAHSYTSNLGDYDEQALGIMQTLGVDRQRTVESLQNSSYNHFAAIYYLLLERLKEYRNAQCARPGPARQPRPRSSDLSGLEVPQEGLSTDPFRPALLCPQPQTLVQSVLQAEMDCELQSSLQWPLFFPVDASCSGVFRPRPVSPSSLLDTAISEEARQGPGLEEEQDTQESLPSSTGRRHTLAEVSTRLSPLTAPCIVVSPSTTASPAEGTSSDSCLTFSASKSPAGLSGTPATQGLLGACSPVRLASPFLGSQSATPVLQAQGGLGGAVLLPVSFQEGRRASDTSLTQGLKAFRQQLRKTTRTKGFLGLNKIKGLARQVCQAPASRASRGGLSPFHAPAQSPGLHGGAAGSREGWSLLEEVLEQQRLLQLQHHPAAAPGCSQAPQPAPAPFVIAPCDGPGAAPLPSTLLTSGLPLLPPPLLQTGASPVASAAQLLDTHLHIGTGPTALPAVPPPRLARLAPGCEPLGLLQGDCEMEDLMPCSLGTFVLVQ
SIK3, sequence (Q9Y2K2 whole entry): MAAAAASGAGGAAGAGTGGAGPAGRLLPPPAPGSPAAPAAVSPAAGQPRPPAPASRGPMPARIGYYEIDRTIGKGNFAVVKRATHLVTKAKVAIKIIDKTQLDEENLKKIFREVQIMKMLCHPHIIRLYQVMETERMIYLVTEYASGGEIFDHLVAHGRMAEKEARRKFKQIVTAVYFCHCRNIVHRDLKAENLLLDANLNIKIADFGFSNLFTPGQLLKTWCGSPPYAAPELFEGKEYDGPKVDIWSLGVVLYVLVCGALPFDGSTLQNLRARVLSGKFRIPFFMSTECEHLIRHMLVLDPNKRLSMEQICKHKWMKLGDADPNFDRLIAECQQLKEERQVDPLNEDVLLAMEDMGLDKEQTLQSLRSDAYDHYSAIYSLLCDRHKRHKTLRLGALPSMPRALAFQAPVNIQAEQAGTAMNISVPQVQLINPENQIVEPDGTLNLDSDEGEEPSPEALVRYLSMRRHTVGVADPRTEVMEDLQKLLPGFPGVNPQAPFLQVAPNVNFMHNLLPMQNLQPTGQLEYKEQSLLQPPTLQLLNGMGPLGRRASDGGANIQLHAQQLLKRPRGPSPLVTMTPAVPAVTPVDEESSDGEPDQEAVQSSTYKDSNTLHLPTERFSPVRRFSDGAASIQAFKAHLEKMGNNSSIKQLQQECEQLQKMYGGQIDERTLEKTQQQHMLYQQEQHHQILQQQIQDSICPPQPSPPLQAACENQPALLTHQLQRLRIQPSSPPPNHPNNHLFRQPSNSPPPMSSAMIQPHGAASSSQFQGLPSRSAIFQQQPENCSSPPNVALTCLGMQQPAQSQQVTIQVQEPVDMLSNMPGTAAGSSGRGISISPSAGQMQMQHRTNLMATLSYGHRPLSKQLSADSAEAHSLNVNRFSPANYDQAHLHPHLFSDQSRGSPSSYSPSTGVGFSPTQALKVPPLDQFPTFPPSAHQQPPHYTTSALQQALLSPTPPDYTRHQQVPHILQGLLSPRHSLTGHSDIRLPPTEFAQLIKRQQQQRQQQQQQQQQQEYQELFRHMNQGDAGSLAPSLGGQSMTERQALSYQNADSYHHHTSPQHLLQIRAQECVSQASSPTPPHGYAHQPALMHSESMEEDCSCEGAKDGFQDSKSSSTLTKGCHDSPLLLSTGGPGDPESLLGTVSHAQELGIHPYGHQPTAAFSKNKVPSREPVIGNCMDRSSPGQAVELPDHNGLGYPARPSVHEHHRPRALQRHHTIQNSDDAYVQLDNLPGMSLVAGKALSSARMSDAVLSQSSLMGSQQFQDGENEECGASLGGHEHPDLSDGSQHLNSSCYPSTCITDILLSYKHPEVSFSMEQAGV
SIK2, sequence (Q9H0K1 whole entry): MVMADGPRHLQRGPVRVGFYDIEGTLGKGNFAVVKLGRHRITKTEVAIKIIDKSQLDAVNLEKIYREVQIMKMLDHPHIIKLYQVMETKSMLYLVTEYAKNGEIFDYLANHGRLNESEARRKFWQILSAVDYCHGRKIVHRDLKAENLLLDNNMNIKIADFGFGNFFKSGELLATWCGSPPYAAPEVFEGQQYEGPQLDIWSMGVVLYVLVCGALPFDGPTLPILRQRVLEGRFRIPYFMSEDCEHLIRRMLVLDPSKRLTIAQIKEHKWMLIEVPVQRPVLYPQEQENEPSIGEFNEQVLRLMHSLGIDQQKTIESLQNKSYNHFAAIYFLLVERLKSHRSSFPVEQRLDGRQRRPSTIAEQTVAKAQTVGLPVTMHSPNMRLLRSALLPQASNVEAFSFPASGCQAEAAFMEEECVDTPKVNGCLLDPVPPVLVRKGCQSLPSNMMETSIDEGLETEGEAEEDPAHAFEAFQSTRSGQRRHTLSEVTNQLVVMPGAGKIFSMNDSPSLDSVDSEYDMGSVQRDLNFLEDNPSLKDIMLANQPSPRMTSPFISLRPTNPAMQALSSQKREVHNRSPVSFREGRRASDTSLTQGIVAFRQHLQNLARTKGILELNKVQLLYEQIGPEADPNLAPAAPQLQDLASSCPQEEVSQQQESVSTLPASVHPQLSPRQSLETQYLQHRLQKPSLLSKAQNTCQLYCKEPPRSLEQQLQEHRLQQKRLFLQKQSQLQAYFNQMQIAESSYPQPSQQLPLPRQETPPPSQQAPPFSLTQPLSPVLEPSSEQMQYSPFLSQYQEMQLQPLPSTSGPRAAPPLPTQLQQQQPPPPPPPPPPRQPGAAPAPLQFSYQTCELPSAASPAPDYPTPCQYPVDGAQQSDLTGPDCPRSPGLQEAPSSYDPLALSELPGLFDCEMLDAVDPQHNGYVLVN

IC50 (SIK1)	IC50 (SIK2)	IC50 (SIK3)	Compound
0.914 µM	0.171 µM	0.257 µM	Cc1cc(C#N)nn1-c1nc(-n2cnc3cc(N[C@H]4CNC[C@H]4F)ccc32)ccc1C(N)=O [Example 25, 2-(3-Cyano-5-methyl-pyrazol-1-yl)-6-[5-[[(3S,4R)-4-fluoropyrrolidin-3-yl]amino]benzimidazol-1-yl]pyridine-3-carboxamide; formic acid]
17.8 µM	0.153 µM	0.0494 µM	COC(=O)c1ccc(-n2cnc3cc(Nc4ccc(C)nn4)ccc32)nc1-n1nc(OC)cc1C [Example 26, Methyl 2-(3-methoxy-5-methyl-pyrazol-1-yl)-6-[5-[(6-methylpyridazin-3-yl)amino]benzimidazol-1-yl]pyridine-3-carboxylate]
0.669 µM	0.0066 µM	0.0081 µM	CC(=O)c1ccc(-n2cnc3cc(Nc4ccc(C)nn4)ccc32)nc1-n1nc(C#N)cc1C [Example 27, 1-[3-Acetyl-6-[5-[(6-methylpyridazin-3-yl)amino]benzimidazol-1-yl]-2-pyridyl]-5-methyl-pyrazole-3-carbonitrile]
0.308 µM	0.111 µM	0.184 µM	CC(=O)c1ccc(-n2cnc3ccc(Nc4ccc(C)nn4)cc32)nc1-n1nc(C#N)cc1C [Example 28, 1-[3-Acetyl-6-[6-[(6-methylpyridazin-3-yl)amino]benzimidazol-1-yl]-2-pyridyl]-5-methyl-pyrazole-3-carbonitrile]
0.013 µM	0.0091 µM	1.23 µM	CC(=O)c1ccc(-n2cnc3cc4c(cc32)CCN4)nc1-n1nc(C#N)cc1C [Example 31, 1-[3-acetyl-6-(6,7-dihydro-5H-pyrrolo[2,3-f]benzimidazol-1-yl)-2-pyridyl]-5-methyl-pyrazole-3-carbonitrile]
0.043 µM	0.0199 µM	0.988 µM	Cc1ccc(Nc2ccc3ncn(-c4ccc(C=O)c(N5C[C@H](C#N)C[C@@H]5C)n4)c3c2)nn1 [Example 32, (3R,5S)-1-[3-formyl-6-[6-[(6-methylpyridazin-3-yl)amino]benzimidazol-1-yl]-2-pyridyl]-5-methyl-pyrrolidine-3-carbonitrile]
0.076 µM	0.0951 µM	0.562 µM	Cc1ccc(Nc2ccc3c(c2)ncn3-c2ccc(C=O)c(N3C[C@H](C#N)C[C@@H]3C)n2)nn1 [Example 33, (3R,5S)-1-[3-formyl-6-[5-[(6-methylpyridazin-3-yl)amino]benzimidazol-1-yl]-2-pyridyl]-5-methyl-pyrrolidine-3-carbonitrile]
2.33 µM	0.0414 µM	0.0317 µM	Cc1ccc(Nc2ccc3c(c2)ncn3-c2ccc(C(=O)C(F)(F)F)c(-n3nc(C#N)cc3C)n2)nn1 [Example 34, 5-methyl-1-[6-[5-[(6-methylpyridazin-3-yl)amino]benzimidazol-1-yl]-3-(2,2,2-trifluoroacetyl)-2-pyridyl]pyrazole-3-carbonitrile]
0.101 µM	0.115 µM	0.15 µM	CC(=O)c1ccc(-n2cnc3cc4c(cc32)C(C)(C)C(=O)N4c2ccc(C)nn2)nc1-n1nc(C#N)cc1C [Example 35, 1-[3-acetyl-6-[6-keto-7,7-dimethyl-5-(6-methylpyridazin-3-yl)pyrrolo[2,3-f]benzimidazol-1-yl]-2-pyridyl]-5-methyl-pyrazole-3-carbonitrile]
0.274 µM	0.0052 µM	0.0007 µM	Cc1ccc(Nc2ccc3c(c2)ncn3-c2ccc(C=O)c(-n3nc(C#N)cc3C)n2)nn1 [Example 36, 1-[3-formyl-6-[5-[(6-methylpyridazin-3-yl)amino]benzimidazol-1-yl]-2-pyridyl]-5-methyl-pyrazole-3-carbonitrile]
> 10 µM	0.502 µM	0.208 µM	CC(=O)c1ccc(-n2cnc3cc(Nc4cccn(C)c4=O)ccc32)nc1-n1nc(C#N)cc1C [Example 37, 1-[3-acetyl-6-[5-[(2-keto-1-methyl-3-pyridyl)amino]benzimidazol-1-yl]-2-pyridyl]-5-methyl-pyrazole-3-carbonitrile]
3.49 µM	0.754 µM	1.79 µM	COc1nn(C)cc1-c1ccc2c(c1)ncn2-c1ccc(C(C)=O)c(-n2nc(C#N)cc2C)n1 [Example 38, 1-[3-acetyl-6-[5-(3-methoxy-1-methyl-pyrazol-4-yl)benzimidazol-1-yl]-2-pyridyl]-5-methyl-pyrazole-3-carbonitrile]
6.58 µM	0.0437 µM	0.728 µM	CC(=O)c1ccc(-n2cnc3cc(Nc4ccc(C5CCCN5)nn4)ccc32)nc1-n1nc(C#N)cc1C (stereo not drawn) [Example 39, 1-[3-acetyl-6-[5-[(6-pyrrolidin-2-ylpyridazin-3-yl)amino]benzimidazol-1-yl]-2-pyridyl]-5-methyl-pyrazole-3-carbonitrile]
> 30 µM	0.536 µM	8.8 µM	Cc1ccc(Nc2ccc3ncn(-c4ccc(C=O)c(-n5nc(C#N)cc5C)n4)c3c2)nn1 [Example 40, 1-[3-formyl-6-[6-[(6-methylpyridazin-3-yl)amino]benzimidazol-1-yl]-2-pyridyl]-5-methyl-pyrazole-3-carbonitrile]
